Assay results: ChEMBL document CHEMBL5463729, “Data for DCP probe BAY 1753011” (2023); call rule not given here
Values belong to the molecule of their own block, whether it stands above or below them.

Assays:
[1] = target: Tyrosine-protein kinase ABL1 (Homo sapiens) (UniProt P00519); test: Inhibition of Abl(h) at 10.0 µM in the Eurofins Kinase panel; details: Compound concentration 10.0 uM
[2] = target: Ephrin type-B receptor 4 (Homo sapiens) (UniProt P54760); test: Inhibition of EphB4(h) at 10.0 µM in the Eurofins Kinase panel; details: Compound concentration 10.0 uM
Chain of Ephrin type-B receptor 4 (Homo sapiens) (P54760 whole entry): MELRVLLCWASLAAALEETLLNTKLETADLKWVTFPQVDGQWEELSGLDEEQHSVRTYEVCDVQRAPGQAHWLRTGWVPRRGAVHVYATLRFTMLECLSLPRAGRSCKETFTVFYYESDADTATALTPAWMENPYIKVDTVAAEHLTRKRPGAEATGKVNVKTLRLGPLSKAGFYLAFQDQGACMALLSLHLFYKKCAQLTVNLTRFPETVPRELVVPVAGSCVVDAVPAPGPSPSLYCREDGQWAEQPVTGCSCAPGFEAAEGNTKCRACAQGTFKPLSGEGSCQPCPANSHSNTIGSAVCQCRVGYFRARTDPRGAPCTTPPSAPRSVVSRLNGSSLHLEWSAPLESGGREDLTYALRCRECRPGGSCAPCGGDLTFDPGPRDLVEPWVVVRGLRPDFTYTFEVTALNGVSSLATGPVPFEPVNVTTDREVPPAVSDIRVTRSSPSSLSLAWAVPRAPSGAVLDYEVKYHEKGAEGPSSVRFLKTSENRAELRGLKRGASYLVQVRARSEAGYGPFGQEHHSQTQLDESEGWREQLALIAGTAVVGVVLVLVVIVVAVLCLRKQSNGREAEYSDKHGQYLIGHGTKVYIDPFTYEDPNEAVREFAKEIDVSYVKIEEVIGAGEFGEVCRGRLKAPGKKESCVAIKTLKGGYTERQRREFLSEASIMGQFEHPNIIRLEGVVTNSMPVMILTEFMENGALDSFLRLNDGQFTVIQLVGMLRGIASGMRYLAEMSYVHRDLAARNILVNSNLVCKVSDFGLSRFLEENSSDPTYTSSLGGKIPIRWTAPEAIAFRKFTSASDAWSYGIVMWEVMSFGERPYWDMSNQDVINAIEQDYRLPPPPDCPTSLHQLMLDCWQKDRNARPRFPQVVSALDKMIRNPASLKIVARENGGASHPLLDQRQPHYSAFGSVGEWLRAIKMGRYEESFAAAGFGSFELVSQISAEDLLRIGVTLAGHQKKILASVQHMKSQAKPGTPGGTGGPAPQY

[3] = target: Insulin-like growth factor 1 receptor (Homo sapiens) (UniProt P08069); test: Inhibition of IGF-1R(h) at 10.0 µM in the Eurofins Kinase panel; details: Compound concentration 10.0 uM
[4] = target: Serine/threonine-protein kinase Sgk2 (Homo sapiens) (UniProt Q9HBY8); test: Inhibition of SGK2(h) at 10.0 µM in the Eurofins Kinase panel; details: Compound concentration 10.0 uM
Chain of Serine/threonine-protein kinase Sgk2 (Homo sapiens) (Q9HBY8 whole entry): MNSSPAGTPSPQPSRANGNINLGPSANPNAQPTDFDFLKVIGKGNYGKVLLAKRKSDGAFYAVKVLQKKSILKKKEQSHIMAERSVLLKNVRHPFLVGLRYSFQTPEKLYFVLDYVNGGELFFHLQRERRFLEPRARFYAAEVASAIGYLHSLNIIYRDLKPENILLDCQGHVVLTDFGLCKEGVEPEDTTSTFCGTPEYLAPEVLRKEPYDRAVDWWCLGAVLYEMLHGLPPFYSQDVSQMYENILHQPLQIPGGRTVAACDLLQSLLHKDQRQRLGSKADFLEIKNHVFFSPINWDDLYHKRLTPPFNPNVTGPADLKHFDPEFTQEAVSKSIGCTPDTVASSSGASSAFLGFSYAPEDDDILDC

[5] = target: 5-hydroxytryptamine receptor 1D (Homo sapiens) (UniProt P28221); details: Compound concentration 10.0 uM
Chain of 5-hydroxytryptamine receptor 1D (Homo sapiens) (P28221 whole entry): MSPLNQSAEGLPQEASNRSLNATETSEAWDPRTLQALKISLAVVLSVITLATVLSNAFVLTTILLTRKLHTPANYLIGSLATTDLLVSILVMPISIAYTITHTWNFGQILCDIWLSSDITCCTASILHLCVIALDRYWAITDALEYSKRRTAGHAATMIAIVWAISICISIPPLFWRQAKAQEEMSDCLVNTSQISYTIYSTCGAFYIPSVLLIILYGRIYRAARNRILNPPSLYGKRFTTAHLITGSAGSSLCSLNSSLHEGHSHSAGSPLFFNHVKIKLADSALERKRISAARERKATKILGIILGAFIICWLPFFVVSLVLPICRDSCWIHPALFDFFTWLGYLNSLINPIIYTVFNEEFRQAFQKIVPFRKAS

Homo sapiens [6] = organism: Homo sapiens; details: Compound concentration 10.0 uM
[7] = target: Progesterone receptor (Homo sapiens) (UniProt P06401); details: Compound concentration 10.0 uM
hERG (KCNH2) = hERG (KCNH2) (Homo sapiens, UniProt Q12809); test: Inhibition of Potassium Channel hERG at 10 µM in the Eurofins-Panlabs radioligand binding assay (Eurofins_assay_265900); set-up: ligand concentration 1.5 nM, non-specific ligand with concentration Astemizole, incubation time 60 min, incubation temperature 25 °C; details: HEK-293 cells expressing human recombinant hERG, probe [3H] Astemizole, compound concentration 10 uM
[8] = target: Protein phosphatase 3 catalytic subunit alpha (Homo sapiens) (UniProt Q08209); test: Inhibition of Protein Serine/threonine Phosphatase, PPP3CA (Calcineurin, PP2B) at […] µM in the Eurofins-Panlabs enzyme assay (Eurofins_assay_188020); set-up: substrate with concentration; details: Compound concentration 11.0 uM
[9] = Inhibition of Atrial Natriuretic Factor (ANF) at 10 µM in the Eurofins-Panlabs radioligand binding assay (Eurofins_assay_211000); details: Cavia porcellus; Compound concentration 10 uM; Assay protocol publication PMID: 2408776; Detection method Radioligand Binding; Incubation temperature 4 °C; Incubation time 60 min; Ligand Bmax 0.013 pM/ mg protein; Ligand Kd 0.14 nM; Ligand [125I] ANF (rat); Ligand concentration 0.016 nM; Ligand specific binding 78 %; Non-specific ligand with concentration 0.1 µM ANF (rat); Reference compound ANF (rat); Source of …
[10] = target: C-C chemokine receptor type 4 (Homo sapiens) (UniProt P51679); test: Inhibition of Chemokine CCR4 at 10 µM in the Eurofins-Panlabs radioligand binding assay (Eurofins_assay_217660); details: Compound concentration 10.0 uM
Rattus norvegicus = organism: Rattus norvegicus; test: Inhibition of Glycine, Strychnine-Sensitive at 10 µM in the Eurofins-Panlabs radioligand binding assay (Eurofins_assay_239000); details: Compound concentration 10.0 uM
[11] = target: T1, Muscarinic acetylcholine receptor M5 (Homo sapiens) (UniProt P08912); test: Inhibition of Muscarinic M5 at 10 µM in the Eurofins-Panlabs radioligand binding assay (Eurofins_assay_253010); set-up: ligand concentration 0.8 nM; details: Compound concentration 10.0 uM
T1 sequence (whole entry): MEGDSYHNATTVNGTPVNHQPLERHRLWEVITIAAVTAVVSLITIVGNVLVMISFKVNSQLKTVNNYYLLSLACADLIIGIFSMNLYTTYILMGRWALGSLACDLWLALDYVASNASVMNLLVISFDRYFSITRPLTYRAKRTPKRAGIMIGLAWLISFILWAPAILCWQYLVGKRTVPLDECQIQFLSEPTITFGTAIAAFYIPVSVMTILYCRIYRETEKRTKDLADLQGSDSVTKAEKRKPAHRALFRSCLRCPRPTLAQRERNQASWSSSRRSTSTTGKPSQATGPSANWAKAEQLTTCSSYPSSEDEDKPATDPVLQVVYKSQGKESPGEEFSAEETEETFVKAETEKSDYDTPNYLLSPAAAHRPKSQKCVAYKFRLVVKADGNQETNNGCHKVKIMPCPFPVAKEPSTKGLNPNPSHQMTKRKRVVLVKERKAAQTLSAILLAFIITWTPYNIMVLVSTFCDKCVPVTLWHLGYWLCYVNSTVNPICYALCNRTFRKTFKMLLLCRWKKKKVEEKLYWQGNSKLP

[12] = target: 5-hydroxytryptamine receptor 1B (Homo sapiens) (UniProt P28222); test: Inhibition of Serotonin (5-Hydroxytryptamine) 5-HT1B at 10 µM in the Eurofins-Panlabs radioligand binding assay (Eurofins_assay_271200); details: Compound concentration 10.0 uM
[13] = target: 5-hydroxytryptamine receptor 6 (Homo sapiens) (UniProt P50406); test: Inhibition of Serotonin (5-Hydroxytryptamine) 5-HT6 at 10 µM in the Eurofins-Panlabs radioligand binding assay (Eurofins_assay_272200); details: Compound concentration 10.0 uM
[14] = target: Substance-K receptor (Homo sapiens) (UniProt P21452); test: Inhibition of Tachykinin NK2 at 10 µM in the Eurofins-Panlabs radioligand binding assay (Eurofins_assay_255600); set-up: ligand concentration 0.5 nM; details: Compound concentration 10.0 uM
Chain of Substance-K receptor (Homo sapiens) (P21452 whole entry): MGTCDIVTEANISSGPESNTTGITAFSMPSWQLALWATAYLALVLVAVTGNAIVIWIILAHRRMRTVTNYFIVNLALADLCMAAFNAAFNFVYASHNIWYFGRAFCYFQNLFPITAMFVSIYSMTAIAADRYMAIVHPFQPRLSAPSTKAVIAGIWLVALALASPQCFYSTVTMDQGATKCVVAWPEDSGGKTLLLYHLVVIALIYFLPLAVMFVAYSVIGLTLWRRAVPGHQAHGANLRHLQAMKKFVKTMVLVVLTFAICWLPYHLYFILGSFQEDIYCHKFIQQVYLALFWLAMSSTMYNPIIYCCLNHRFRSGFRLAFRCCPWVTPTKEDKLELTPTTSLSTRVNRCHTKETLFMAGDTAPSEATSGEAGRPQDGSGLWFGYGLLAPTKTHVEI

Homo sapiens [15] = organism: Homo sapiens; test: Inhibition of Tumor Necrosis Factor (TNF), Non-Selective at 10 µM in the Eurofins-Panlabs radioligand binding assay (Eurofins_assay_286510); details: Compound concentration 10.0 uM
[16] = target: Dual specificity protein kinase CLK4 (Homo sapiens) (UniProt Q9HAZ1); test: Inhibition of CLK4(h) at 10.0 µM in the Eurofins Kinase panel; details: Compound concentration 10.0 uM
[17] = target: Rho-associated protein kinase 2 (Homo sapiens) (UniProt O75116); test: Inhibition of ROCK-II(h) at 10.0 µM in the Eurofins Kinase panel; details: Compound concentration 10.0 uM
[18] = target: Angiopoietin-1 receptor (Homo sapiens) (UniProt Q02763); test: Inhibition of Tie2(h) at 10.0 µM in the Eurofins Kinase panel; details: Compound concentration 10.0 uM
Chain of Angiopoietin-1 receptor (Homo sapiens) (Q02763 whole entry): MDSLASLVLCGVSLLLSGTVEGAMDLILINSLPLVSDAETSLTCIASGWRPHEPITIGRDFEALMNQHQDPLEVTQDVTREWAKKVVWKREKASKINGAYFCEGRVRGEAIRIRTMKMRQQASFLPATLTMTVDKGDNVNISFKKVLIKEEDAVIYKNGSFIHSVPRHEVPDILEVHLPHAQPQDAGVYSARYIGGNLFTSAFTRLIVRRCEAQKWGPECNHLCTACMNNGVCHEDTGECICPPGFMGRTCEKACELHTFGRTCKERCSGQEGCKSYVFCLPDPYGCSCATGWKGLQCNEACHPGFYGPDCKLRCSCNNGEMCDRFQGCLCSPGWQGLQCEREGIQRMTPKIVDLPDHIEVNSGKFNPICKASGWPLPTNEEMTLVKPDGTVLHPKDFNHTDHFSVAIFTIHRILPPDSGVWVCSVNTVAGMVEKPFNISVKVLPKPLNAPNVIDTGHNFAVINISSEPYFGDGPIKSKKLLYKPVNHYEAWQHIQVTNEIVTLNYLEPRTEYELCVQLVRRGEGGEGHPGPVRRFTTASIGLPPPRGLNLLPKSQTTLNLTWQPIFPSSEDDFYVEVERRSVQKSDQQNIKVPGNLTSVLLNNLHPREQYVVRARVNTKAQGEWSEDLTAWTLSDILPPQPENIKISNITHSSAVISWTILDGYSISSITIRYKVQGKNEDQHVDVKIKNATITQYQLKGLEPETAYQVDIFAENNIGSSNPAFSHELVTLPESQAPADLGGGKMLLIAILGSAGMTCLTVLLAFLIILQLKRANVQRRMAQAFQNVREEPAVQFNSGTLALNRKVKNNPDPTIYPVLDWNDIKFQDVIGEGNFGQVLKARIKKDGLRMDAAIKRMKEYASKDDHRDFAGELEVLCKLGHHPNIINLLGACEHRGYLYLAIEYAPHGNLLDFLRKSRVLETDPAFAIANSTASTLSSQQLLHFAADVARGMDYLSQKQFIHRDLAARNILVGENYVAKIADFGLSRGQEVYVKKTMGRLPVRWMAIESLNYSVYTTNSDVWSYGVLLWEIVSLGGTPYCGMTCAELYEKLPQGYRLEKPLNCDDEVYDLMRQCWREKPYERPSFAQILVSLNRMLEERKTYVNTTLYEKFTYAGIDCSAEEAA

[19] = target: Serine/threonine-protein kinase tousled-like 1 (Homo sapiens) (UniProt Q9UKI8); test: Inhibition of TLK1(h) at 10.0 µM in the Eurofins Kinase panel; details: Compound concentration 10.0 uM
[20] = target: D(1A) dopamine receptor (Homo sapiens) (UniProt P21728); details: Compound concentration 10.0 uM
Chain of D(1A) dopamine receptor (Homo sapiens) (P21728 whole entry): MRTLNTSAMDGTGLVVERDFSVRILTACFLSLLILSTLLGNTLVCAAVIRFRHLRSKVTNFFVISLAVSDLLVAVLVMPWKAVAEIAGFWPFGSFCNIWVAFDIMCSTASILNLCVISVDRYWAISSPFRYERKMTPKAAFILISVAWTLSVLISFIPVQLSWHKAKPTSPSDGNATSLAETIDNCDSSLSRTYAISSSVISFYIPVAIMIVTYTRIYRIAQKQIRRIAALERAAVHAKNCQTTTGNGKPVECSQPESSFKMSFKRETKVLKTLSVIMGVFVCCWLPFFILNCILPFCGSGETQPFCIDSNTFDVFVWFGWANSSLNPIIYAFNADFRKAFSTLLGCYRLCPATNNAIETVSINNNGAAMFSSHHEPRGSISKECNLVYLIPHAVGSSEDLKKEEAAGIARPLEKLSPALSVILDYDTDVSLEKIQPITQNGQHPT

[21] = target: Mitogen-activated protein kinase kinase kinase kinase 2 (Homo sapiens) (UniProt Q12851); test: Inhibition of GCK (h) at 10.0 µM in the Eurofins Kinase panel; details: Compound concentration 10.0 uM

Chain of Tyrosine-protein kinase ABL1 (Homo sapiens) (P00519 whole entry): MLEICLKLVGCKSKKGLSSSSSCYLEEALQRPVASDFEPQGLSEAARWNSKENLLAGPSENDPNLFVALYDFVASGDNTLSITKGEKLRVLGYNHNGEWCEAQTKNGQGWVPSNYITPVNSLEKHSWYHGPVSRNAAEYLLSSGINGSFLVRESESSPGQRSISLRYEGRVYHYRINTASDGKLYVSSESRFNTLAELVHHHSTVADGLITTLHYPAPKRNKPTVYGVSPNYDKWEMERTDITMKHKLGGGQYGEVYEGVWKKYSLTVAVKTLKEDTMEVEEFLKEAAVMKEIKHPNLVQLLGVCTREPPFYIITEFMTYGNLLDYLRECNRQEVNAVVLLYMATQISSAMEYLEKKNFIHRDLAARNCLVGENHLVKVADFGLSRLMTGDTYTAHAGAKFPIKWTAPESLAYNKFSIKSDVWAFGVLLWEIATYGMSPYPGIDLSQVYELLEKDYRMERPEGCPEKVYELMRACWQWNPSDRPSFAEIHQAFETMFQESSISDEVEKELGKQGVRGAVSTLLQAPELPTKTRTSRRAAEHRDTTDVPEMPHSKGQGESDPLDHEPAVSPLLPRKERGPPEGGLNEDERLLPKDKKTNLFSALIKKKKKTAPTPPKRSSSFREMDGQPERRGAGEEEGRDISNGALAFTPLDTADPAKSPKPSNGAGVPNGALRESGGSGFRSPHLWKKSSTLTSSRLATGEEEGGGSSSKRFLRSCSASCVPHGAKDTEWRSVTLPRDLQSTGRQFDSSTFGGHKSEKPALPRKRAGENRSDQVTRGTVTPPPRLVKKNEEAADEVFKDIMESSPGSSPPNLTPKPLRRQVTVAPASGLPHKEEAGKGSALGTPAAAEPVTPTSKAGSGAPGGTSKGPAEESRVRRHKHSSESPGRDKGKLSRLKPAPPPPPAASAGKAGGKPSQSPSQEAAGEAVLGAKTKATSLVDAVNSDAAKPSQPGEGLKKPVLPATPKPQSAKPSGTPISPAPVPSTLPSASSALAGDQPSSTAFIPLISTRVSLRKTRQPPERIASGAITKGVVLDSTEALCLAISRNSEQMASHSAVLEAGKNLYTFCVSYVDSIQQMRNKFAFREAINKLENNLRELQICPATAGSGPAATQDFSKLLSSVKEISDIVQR

inhibition [1]: -3.62%
inhibition [2]: -2.17%
inhibition [3]: -8.87%
inhibition [4]: -3.39%
inhibition [5]: 10.1%
inhibition (Homo sapiens [6]): -5%
inhibition [7]: 25%
SMILES: O=c1n(Cc2cncn2-c2cccc(Cl)c2)nc(-c2ccc(Cl)cc2)n1C[C@H](O)C(F)(F)F

SMILES: C[C@H](O)c1nc(Cn2nc(-c3ccc(Cl)cc3)n(C[C@H](O)C(F)(F)F)c2=O)nn1-c1cccc(Cl)c1 [PECAVAPTAN]
inhibition at 60 min, 10 µM (hERG (KCNH2)): -3% (not active)
inhibition [8]: 32%
inhibition at 10 µM [9]: 1% (not active)
inhibition [10]: -2%
inhibition (Rattus norvegicus): 12%
inhibition [11]: 6%
inhibition [12]: -5%
inhibition [13]: 4%
inhibition [14]: 30%
inhibition (Homo sapiens [15]): -1%
inhibition [16]: 1.42%
inhibition [17]: 18.1%
inhibition [18]: -8.17%
inhibition [19]: -3.06%
inhibition [20]: -6.55%
inhibition [21]: -4.72%
